Source: the CheMixHub ionic liquid set

Experiment: xn = mol fraction of the nth substance listed

CCCCCC[n+]1ccn(C)c1.F[B-](F)(F)F + CC(C)O + CCCO
viscosity [mPa·s], 101 kPa
Settings	293.15 K	303.15 K	313.15 K
x2 = 0.0547, x3 = 0.092	153.8	92	–
x2 = 0.0978, x3 = 0.4041	31.47	21.38	15.28
x2 = 0.1003, x3 = 0.7991	4.92	3.33	2.35
x2 = 0.1006, x3 = 0.6013	13.2	9.16	6.69
x2 = 0.1012, x3 = 0.4996	20.14	13.93	10.1
x2 = 0.1014, x3 = 0.7009	8.3	5.74	4.16
x2 = 0.1116, x3 = 0.2875	49.62	32.6	22.59
x2 = 0.1293, x3 = 0.1504	85.1	53.44	–
x2 = 0.1973, x3 = 0.1121	75.21	48.39	32.33
x2 = 0.1985, x3 = 0.4006	20.51	14.2	10.17
x2 = 0.1992, x3 = 0.3012	32.59	21.43	15.29
x2 = 0.2003, x3 = 0.2005	49.41	32.39	22.5
x2 = 0.2003, x3 = 0.4992	13.3	9.31	6.79
x2 = 0.2012, x3 = 0.6984	5	3.35	2.37
x2 = 0.2977, x3 = 0.1042	50.06	32.73	22.7
x2 = 0.2999, x3 = 0.4989	8.8	6.05	4.35
x2 = 0.3037, x3 = 0.4006	13.28	9.19	6.68
x2 = 0.3046, x3 = 0.5961	5.05	3.39	2.36
x2 = 0.3058, x3 = 0.3005	20.27	13.93	10.1
x2 = 0.3977, x3 = 0.2999	13.8	9.55	6.92
x2 = 0.3985, x3 = 0.104	31.6	21.33	15.15
x2 = 0.3987, x3 = 0.3005	13.61	9.43	6.88
x2 = 0.3989, x3 = 0.3998	8.77	6.02	4.33
x2 = 0.3989, x3 = 0.5015	5.18	3.4	2.38
x2 = 0.4002, x3 = 0.1968	21.12	14.53	10.38
x2 = 0.4992, x3 = 0.4006	5.21	3.47	2.4
x2 = 0.5004, x3 = 0.0998	20.98	14.38	10.33
x2 = 0.5013, x3 = 0.3019	8.68	5.91	4.23
x2 = 0.5734, x3 = 0.2335	8.61	5.85	4.17
x2 = 0.6, x3 = 0.0992	13.73	9.47	6.84
x2 = 0.6001, x3 = 0.3004	5.39	3.43	2.38
x2 = 0.6942, x3 = 0.1049	8.82	5.98	4.27
x2 = 0.698, x3 = 0.2007	5.44	3.54	2.45
x2 = 0.7991, x3 = 0.101	5.41	3.47	2.37

COP(=O)([O-])OC.Cn1cc[n+](C)c1 + CS(C)=O
viscosity [mPa·s], 101 kPa
Settings	298.15 K	313.15 K	333.15 K
x1 = 0.1773	7.7	4.8	3.1
x1 = 0.4972	42.7	22.6	11.9
x1 = 0.7978	134.7	59.6	26.7

CCC(=O)O.CCC(=O)[O-].CC[NH+](CC)CCO + CCCC[n+]1ccn(C)c1.COP(=O)([O-])OC
101 kPa
Settings	viscosity [mPa·s]
278.15 K, x1 = 0.08	1956
283.15 K, x1 = 0.2364	446
283.15 K, x1 = 0.4953	205.6
283.15 K, x1 = 0.6252	170.9
283.15 K, x1 = 0.7416	147.7
288.15 K, x1 = 0.6252	123.8
293.15 K, x1 = 0.3281	154
293.15 K, x1 = 0.8667	70.8
298.15 K, x1 = 0.7416	60.3
298.15 K, x1 = 1	66.2
303.15 K, x1 = 0.08	280.9
303.15 K, x1 = 0.2364	123.4
303.15 K, x1 = 0.4183	70.2
303.15 K, x1 = 0.8667	41.6
308.15 K, x1 = 0.4183	54.9
308.15 K, x1 = 0.8667	32.8
313.15 K, x1 = 0.3281	53.8
313.15 K, x1 = 0.4953	39.2
318.15 K, x1 = 0.6252	27.36
323.15 K, x1 = 0.2364	47.3
323.15 K, x1 = 0.4953	25.98
328.15 K, x1 = 0.2364	38.66
328.15 K, x1 = 0.7416	16.29
328.15 K, x1 = 0.8667	14.65
333.15 K, x1 = 0.4953	18.11
333.15 K, x1 = 0.8667	12.33
333.15 K, x1 = 1	14.08
338.15 K, x1 = 0.08	48.11
338.15 K, x1 = 0.2364	26.76
338.15 K, x1 = 0.6252	13.4
338.15 K, x1 = 0.7416	11.64
343.15 K, x1 = 0.4953	13.09
348.15 K, x1 = 0.1549	25.27
348.15 K, x1 = 0.4183	12.61
348.15 K, x1 = 0.6252	9.95
348.15 K, x1 = 0.8667	7.75
353.15 K, x1 = 0.1549	21.56
353.15 K, x1 = 0.4183	10.98
358.15 K, x1 = 0.4183	9.63
358.15 K, x1 = 0.4953	8.59
358.15 K, x1 = 0.6252	7.61
363.15 K, x1 = 0.7416	5.82
363.15 K, x1 = 1	5.7
368.15 K, x1 = 0.08	17.66
368.15 K, x1 = 0.1549	14.09
368.15 K, x1 = 0.7416	5.16
373.15 K, x1 = 0.7416	4.6
373.15 K, x1 = 1	4.41

C[S+](C)C.O=S(=O)([N-]S(=O)(=O)C(F)(F)F)C(F)(F)F + CC1COC(=O)O1
101 kPa
Settings	electrical conductivity [S/m]
283.15 K, x2 = 0.76	0.862
298.15 K, x1 = 0.0005	0.035
298.15 K, x1 = 0.0008	0.044
298.15 K, x2 = 0.6202	1.29
333.15 K, x2 = 0.76	2.54

CN1CCCN(C)C1=O + CCCCCCCCn1cc[n+](C)c1.[Cl-]
viscosity [mPa·s], 100 kPa
Settings	288.15 K	293.15 K	298.15 K	303.15 K	308.15 K	313.15 K	318.15 K	323.15 K	328.15 K	333.15 K
x2 = 0	4	3.51	3.11	2.78	2.5	2.266	2.064	1.891	1.737	1.595
x2 = 0.0999	15.3	12.48	9.9	8.46	7.27	6.32	5.53	4.88	4.35	3.9
x2 = 0.1998	52.2	40.6	31.8	25.6	21.04	17.5	14.79	12.66	10.9	9.46
x2 = 0.2997	176	128.8	95.4	78.6	61.1	48.4	39	31.9	26.4	21.86
x2 = 0.4004	412	287	224	163.5	122	93.5	72.9	57.5	46.8	38.3
x2 = 0.4993	1016	673	463	326	248	192	144.4	107.7	84.2	67.5
x2 = 0.5981	2302	1467	972	661	462	340	250	186	143.4	110.7
x2 = 0.6984	–	–	1797	1194	815	575	412	311	233	178
x2 = 0.7997	–	–	–	1924	1289	890	632	458	340	257

CCCCCC[n+]1ccn(C)c1.F[B-](F)(F)F + NC(N)=O + O
298.15 K, 100 kPa
Settings	viscosity [mPa·s]
x2 = 0, x1 = 0.0153	2.79
x2 = 0.008814, x3 = 0.9759	2.96
x2 = 0.01758, x3 = 0.9671	2.88
x2 = 0.02591, x3 = 0.9588	2.91
x2 = 0.03448, x3 = 0.9502	2.92
x2 = 0.04235, x3 = 0.9424	2.94

C[N+](C)(C)CCO.O=C([O-])c1cccnc1 + O
viscosity [mPa·s], 100 kPa
Settings	x1 = 0.0008779	x1 = 0.001474	x1 = 0.00202	x1 = 0.002696	x1 = 0.00365	x1 = 0.005797
293.15 K	1.041	1.065	1.087	1.115	1.153	1.238
298.15 K	0.928	0.949	0.968	0.992	1.025	1.097
303.15 K	0.833	0.852	0.869	0.889	0.918	0.98
308.15 K	0.752	0.769	0.784	0.802	0.827	0.88
313.15 K	0.685	0.7	0.713	0.729	0.75	0.796

CC(C)=O + CC(=O)[O-].CC[NH2+]CC
Settings	viscosity [mPa·s]
298.15 K, 101 kPa, x2 = 0	0.309

CCCCCCCCC(=O)O + CCCCCCCC[N+](CCCCCCCC)(CCCCCCCC)CCCCCCCC.[Br-]
Settings	electrical conductivity [S/m]
298.1 K, 100 kPa, x2 = 0.333	4.5e-06

NCCCNCCCN + CC(=O)[O-].CCCC[n+]1ccn(C)c1 + O
viscosity [mPa·s], 101 kPa
Settings	298.15 K	303.15 K	308.15 K	313.15 K	318.15 K	323.15 K	328.15 K	333.15 K
x2 = 0.03479, x1 = 0.0177	3.36	3.32	3.14	2.86	2.61	2.28	1.96	1.77
x2 = 0.03897, x1 = 0.01333	3.54	3.51	3.28	2.95	2.66	2.52	2.34	2.15
x2 = 0.04311, x1 = 0.00893	3.88	3.76	3.32	2.96	2.74	2.62	2.37	2.24

CC(=O)[O-].CCCC[N+]1(C)CCCC1 + O
298.15 K, 101.3 kPa, frequency 100 MHz
Settings	electrical conductivity [S/m]
x1 = 0.017	2.62
x1 = 0.163	0.985

CC(C)[C@H](N)C(=O)O + CCCCCCCCCCCC[N+](C)(C)Cc1ccccc1.[Cl-] + O
electrical conductivity [S/m], 101 kPa
Settings	293.15 K	298.15 K	303.15 K	308.15 K	313.15 K
x1 = 0.0008894, x2 = 0	0.000591	0.000675	0.000763	0.000854	0.000953
x1 = 0.001757, x2 = 0	0.00102	0.00116	0.00131	0.00147	0.00164

F[B-](F)(F)F.[Li+] + CC[n+]1ccn(C)c1.O=S(=O)([O-])C(F)(F)F
electrical conductivity [S/m], 101 kPa
Settings	x1 = 0.007746	x1 = 0.01537	x2 = 0.9648	x2 = 0.9746
288.15 K	0.628	0.59	–	0.537
298.15 K	0.908	0.855	0.796	0.797
333.15 K	2.25	2.19	2.06	2.07

c1ccncc1 + CCCCCCCC[n+]1ccc2ccccc2c1.O=S(=O)([N-]S(=O)(=O)C(F)(F)F)C(F)(F)F
Settings	viscosity [mPa·s]
338.15 K, 101 kPa, x1 = 1	0.54

CCn1cc[n+](C)c1.C[C@H](O)C(=O)[O-] + O
298.15 K, 100 kPa
Settings	viscosity [mPa·s]
x2 = 0.3138	32.5
x2 = 0.9696	1.82

CC[n+]1ccn(C)c1.O=C([O-])C(F)(F)F + OCCO
100 kPa
Settings	electrical conductivity, 298.15 K [S/m]	electrical conductivity, 313.15 K [S/m]	viscosity, 293.15 K [mPa·s]	viscosity, 298.15 K [mPa·s]	viscosity, 303.15 K [mPa·s]	viscosity, 313.15 K [mPa·s]
x1 = 0.001	0.0126	0.0215	20.8	16.9	13.8	9.56
x1 = 0.003	0.0278	0.0473	20.8	16.8	13.8	9.54
x1 = 0.009	0.065	0.111	20.6	16.7	13.7	9.53
x1 = 0.015	0.106	0.18	20.5	16.6	13.7	9.49
x2 = 0.489	1.36	2.23	20.6	17.5	14.9	11.1
x2 = 0.602	1.48	2.25	18.4	15.5	13.2	9.84
x2 = 0.71	1.33	2.06	17.2	14.5	12.3	9.09
x2 = 0.783	1.11	1.72	17.2	14.3	12.1	8.83
x2 = 0.843	0.89	1.41	17.6	14.6	12.2	8.81
x2 = 0.894	0.63	1.03	18.4	15.1	12.5	8.95
x2 = 0.934	0.415	0.69	19.3	15.8	13	9.2
x2 = 0.97	0.2	0.339	20.2	16.4	13.5	9.4
